Structures can show the parent of a compound that is named as a salt.
tested on: not given; experiment: not given; details: not given

melting point [°C]	SMILES
237 to 240	Fc1ccc(CCN2CCC(Sc3cccc(Cl)n3)CC2)cc1 (as salt: hydrochloride) [Example 2, 2-chloro-6-{1-[2-(4-fluorophenyl)ethyl]piperidin-4-ylsulfanyl}pyridine]
208	[O-][S+](c1cccc(Cl)n1)C1CCN(CCc2ccc(F)cc2)CC1 (stereo not shown) (as salt: hydrochloride) [Example 3, 2-chloro-6-{1-[2-(4-fluorophenyl)ethyl]piperidine-4-sulfinyl}pyridine]
141	O=S(=O)(c1cccc2cccnc12)N1CCN(CCc2ccc(F)cc2)CC1 (as salt: hydrochloride) [compound 1, 4-(8-Quinolinesulfonyl)-1-[2-(4-fluorophenyl)ethyl]piperazine]

target: T1, 5-HT2A receptors (Rattus norvegicus, UniProt P14842); experiment: [3H]ketanserine displacement at 5-HT2A receptors (Example A1); assay type: binding; details: frontal rat cortex homogenate, 15 minutes at 37° C.
T1 construct: Frontal rat cortex is homogenized in ice-cold buffer; from tissue; host or cells: rat frontal cortex homogenate (membrane pellet)
Procedure: For the in-vitro detection of affinity to 5-HT2A receptors, the following test (Example A1), for example, can be used. The 5-HT2A receptors are exposed both to [^3H]ketanserine (a substance which is known for its affinity to the receptor) and also to the test compound. The decrease in the affinity of [^3H]ketanserine to the receptor is an indication of the affinity of the test substance to the 5-HT2A receptor. The detection is carried out analogously to the description by J. E. Leysen et al., Molecular Pharmacology, 1982, 21: 301-314, or as also described, for example, in EP 0320983.
Preparation of a Suspension of 5-HT2A Receptors:
Frontal rat cortex is homogenized in ice-cold buffer. The homogenate is centrifuged for 10 minutes at 4° C. and 50,000 X. The pellet is re-suspended in 2.5 ml of ice-cold tris buffer, made up to 10 ml with additional buffer and centrifuged as described. The pellet is then re-suspended in buffer and diluted to give a homogenate comprising 60 mg of material/ml. 0.1 ml of the suspension, 100 μl of a 5 nM solution of [^3H]ketanserine and 100 μl of a solution of the test compound (concentration in the range from 10^−5 to 10^−10 mol per litre) are introduced into the incubation tubes and made up to 1 ml with buffer. The tubes are incubated for 15 minutes at 37° C. After the incubation has been terminated by dipping the tubes into an ice bath, the cooled suspension is filtered through a glass filter under reduced pressure. The filters are washed 3× with 5 ml of cold buffer and then transferred into scintillation tubes. The filters are analysed by liquid scintillation spectrometry in 8 ml of Triton-X scintillator liquid.

T1 sequence (P14842 whole entry): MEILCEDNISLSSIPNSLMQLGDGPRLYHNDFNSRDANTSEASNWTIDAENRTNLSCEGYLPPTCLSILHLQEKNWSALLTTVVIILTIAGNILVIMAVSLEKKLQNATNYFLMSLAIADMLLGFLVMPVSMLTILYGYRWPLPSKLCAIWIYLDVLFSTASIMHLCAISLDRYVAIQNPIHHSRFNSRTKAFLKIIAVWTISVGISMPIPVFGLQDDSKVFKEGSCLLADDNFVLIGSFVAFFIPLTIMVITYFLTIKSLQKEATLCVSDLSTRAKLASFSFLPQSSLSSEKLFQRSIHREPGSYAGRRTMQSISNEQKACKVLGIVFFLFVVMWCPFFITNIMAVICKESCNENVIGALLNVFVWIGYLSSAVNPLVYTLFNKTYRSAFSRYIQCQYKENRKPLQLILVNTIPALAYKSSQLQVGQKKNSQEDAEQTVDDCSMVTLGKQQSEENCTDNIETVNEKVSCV

SMILES	IC50 [nM]
O=S(=O)(c1cccc2cccnc12)N1CCN(CCc2ccc(F)cc2)CC1 [compound 1, 4-(8-Quinolinesulfonyl)-1-[2-(4-fluorophenyl)ethyl]piperazine]	1.3
O=S(=O)(c1cccc2ccccc12)N1CCN(CCc2ccc(F)cc2)CC1 [compound 2, 4-(1-Naphthylsulfonyl)-1-[2-(4-fluorophenyl)ethyl]piperazine]	8.1
CC(=O)Nc1cccc2c(S(=O)(=O)N3CCN(CCc4ccc(F)cc4)CC3)cccc12 [compound 4, 4-(5-Acetamidonaphth-1-yl-sulfonyl)-1-[2-(4-fluorophenyl)ethyl]piperazine]	7.4
O=S(=O)(c1cccc2nonc12)N1CCN(CCc2ccc(F)cc2)CC1 [compound 5, 4-(2,1,3-Benzoxadiazol-4-ylsulfonyl)-1-[2-(4-fluorophenyl)ethyl]piperazine]	44
O=[N+]([O-])c1ccccc1S(=O)(=O)N1CCN(CCc2ccc(F)cc2)CC1 [compound 6, 4-(2-Nitrophenylsulfonyl)-1-[2-(4-fluorophenyl)ethyl]piperazine]	9.2
O=S(=O)(c1cccc(Cl)n1)C1CCN(CCc2ccc(F)cc2)CC1 [compound 10, 2-Chloro-6-{1-[2-(4-fluorophenyl)ethyl]piperidin-4-sulfonyl}pyridine]	0.6

Continued, values first:

IC50 [nM]	SMILES
25	O=S(=O)(c1ccc(F)cc1)N1CCN(CCc2ccc(F)cc2)CC1 [compound 3, 4-(4-Fluorophenylsulfonyl)-1-[2-(4-fluorophenyl)ethyl]piperazine]
13	O=S(=O)(c1ccc2c(c1)CCN2)N1CCN(CCc2ccc(F)cc2)CC1 [compound 7, 4-(2,3-Dihydro-1H-indole-5-sulfonyl)-1-[2-(4-fluorophenyl)ethyl]piperazine]
1.6	N#Cc1c[nH]c2ccc(S(=O)(=O)N3CCN(CCc4ccc(F)cc4)CC3)cc12 [compound 8, 4-(3-Cyano-1H-indole-5-sulfonyl)-1-[2-(4-fluorophenyl)ethyl]piperazine]
2.1	O=S(=O)(c1ccc(F)cc1)C1CCN(CCc2ccc(F)cc2)CC1 [compound 9, 4-(4-Fluorophenylsulfonyl)-1-(2-(4-fluorophenyl)ethyl]piperidine]
